Results from US8048897B2, “Cyclohexane derivative, prodrug thereof and salt thereof, and therapeutic agent containing the same for diabetes” (Chugai Seiyaku Kabushiki Kaisha, priority 2004, dated 2011).

These compounds were tested against T1, human SGLT2 (Homo sapiens, UniProt P31639) (assay: Methyl-α-D-glucopyranoside intake inhibition activity in human SGLT2 stable expression CHO cells). Conditions: methyl-α-D-(U-14C)glucopyranoside intake, 37° C., 45 minutes.
T1 construct: expressed in transfected cells; host or cells: CHO-K1
T1 sequence (P31639 1-672): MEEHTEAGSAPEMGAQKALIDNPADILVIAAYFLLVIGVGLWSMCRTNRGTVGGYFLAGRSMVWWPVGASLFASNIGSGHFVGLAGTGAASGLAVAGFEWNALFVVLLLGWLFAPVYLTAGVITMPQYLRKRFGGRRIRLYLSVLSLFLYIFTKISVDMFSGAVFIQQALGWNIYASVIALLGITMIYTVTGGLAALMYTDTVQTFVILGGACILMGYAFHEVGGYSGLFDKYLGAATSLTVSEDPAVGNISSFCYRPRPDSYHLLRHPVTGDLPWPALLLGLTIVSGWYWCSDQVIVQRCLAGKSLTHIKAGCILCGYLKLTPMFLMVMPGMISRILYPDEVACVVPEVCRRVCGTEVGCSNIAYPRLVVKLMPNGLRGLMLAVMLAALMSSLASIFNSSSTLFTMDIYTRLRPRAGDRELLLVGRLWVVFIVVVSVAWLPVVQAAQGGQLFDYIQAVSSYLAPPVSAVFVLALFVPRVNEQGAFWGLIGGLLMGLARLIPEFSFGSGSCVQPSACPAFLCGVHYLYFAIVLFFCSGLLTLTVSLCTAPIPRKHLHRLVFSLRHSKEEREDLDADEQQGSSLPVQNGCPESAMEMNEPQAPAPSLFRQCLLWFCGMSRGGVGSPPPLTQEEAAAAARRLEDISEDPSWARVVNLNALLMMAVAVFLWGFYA
Assay type: cell-based
Protocol: Test for Confirming Action of Inhibiting Human Na^+-Glucose Co-Transporters (SGLT1 and SGLT2)
(2) Preparation of Human SGLT2 Expression Vector
PCR was performed by KOD+DNA polymerase by taking a human kidney-derived cDNA library (a product of Clontech) as a template with the use of a synthesized DNA primer to amplify human SGLT2 cDNA. […] From the proliferated E. coli, a plasmid was purified according to the usual way. By taking this plasmid as a template, PCR was performed by KOD+DNA polymerase with the use of a synthetic DNA primer into which restriction enzyme recognition sites had been introduced to amplify human SGLT2 cDNA (a fragment added with Xho I recognition site on the upstream side and a Hind III recognition site on the downstream side). This amplified fragment was subjected to Xho I and Hind III digestion, and the digested fragments were connected to their recognition sites of the expression vector pcDNA 3.1(−) with the use of the Rapid DNA Ligation kit. The connected expression vector was introduced into E. coli competent cells (DH5α) and proliferated in an ampicillin-containing LB medium to obtain a human SGLT2 expression vector according to the usual way.
(3) Preparation of Human SGLT1 Stable Expression Cell and Human SGLT2 Stable Expression Cell
The human SGLT1 expression vector or the human SGLT2 expression vector which was digested with restriction enzyme Pvu I was introduced into CHO-K1 cells with the use of FuGene (a product of Roche Diagonostics). After introduction of the gene, the cells were incubated in a DMEM medium (a product of Gibco) containing penicillin (50 U/mL, a product of Sigma), streptomycin (50 mg/L, a product of Sigma), Geneticin (200 mg/L, a product of Nakalai Tesque) and 20% bovine fetal serum in the presence of 5% CO2 at 37° C. for about three weeks to obtain Genticin-resistant clones. From these clones, cells capable of stably expressing human SGLT1 or the human SGLT2 were selected and obtained by using sodium dependent sugar (methyl-α-D-glucopyranoside) intake activity as an index.
(4) Measurement of Methyl-α-D-glucopyranoside Intake Inhibition Activity
The human SGLT1 stable expression CHO cells or the human SGLT2 stable expression CHO cells was seeded in a 96-well plate to a density of 30,000 to 40,000 cells/well and incubated for four to six days. Next, the medium of the culture plate was removed, and a pretreatment buffer (a buffer containing 140 mM of choline chloride, 2 mM of potassium chloride, 1 mM of calcium chloride, 1 mM of magnesium chloride, 10 mM of 2-[4-(2-hydroxyethyl)-1-piperazinyl]ethanesulfonic acid and tris(hydroxymethyl)-aminomethane and having a pH of 7.4) was added in an amount of 150 μL per well and then left to stand at 37° C. for 20 minutes. The pretreatment buffer was removed and the pretreatment buffer was again added in an amount of 50 μL per well and then left to stand at 37° C. for 20 minutes. To 100 mL of a buffer (a buffer containing 140 mM of sodium chloride, 1 mM of potassium chloride, 1 mM of magnesium chloride, 1 mM of methyl-α-D-glucopyranoside, 10 mM of 2-[4-(2-hydroxyethyl)-1-piperazinyl]ethanesulfonic acid and tris(hydroxymethyl)aminomethane and having a pH of 7.4), there was added and mixed 6.3 mL of methyl-α-D-(U-^14C)glucopyranoside (200 mCi/L, a product of Amersham Pharmacia Biotech) to prepare an intake buffer, and a test compound was dissolved in this intake buffer and the resulting solution was used as a buffer for determining inhibition activity. Further, as a control, a test compound-free intake buffer was used. Furthermore, in order to determine a basic intake in the absence of the test compound and sodium, a basic intake buffer containing 140 mM of choline chloride instead of the sodium chloride was prepared in the same manner and used in the determina-tion. […]
`COc1ccc(Cc2cccc([C@@H]3C[C@H](CO)[C@@H](O)[C@H](O)[C@H]3O)c2)cc1` (single isomer, unassigned) [Example 2] gave an IC50 of 111 nM.
`COc1ccc(Cc2ccccc2O[C@@H]2C[C@H](CO)[C@@H](O)[C@H](O)[C@H]2O)cc1` [Example 1, [2-(4-Methoxybenzyl)phenyl]-5a-carba-β-D-glucopyranoside] was tested, and the IC50 was 61 nM.
`OC[C@H]1C[C@@H](Oc2ccccc2Cc2ccc(C3CC3)cc2)[C@H](O)[C@@H](O)[C@@H]1O` [Example 8, [2-(4-Cyclopropylbenzyl)phenyl]-5a-carba-β-D-glucopyranoside] was tested, and the IC50 was 7 nM.
In the case of `CSc1ccc(Cc2ccccc2O[C@@H]2C[C@H](CO)[C@@H](O)[C@H](O)[C@H]2O)cc1` [Example 11, [2-(4-Methylsulfanylbenzyl)phenyl]-5a-carba-β-D-gluco-pyranoside], the IC50 is reported as 14 nM.
In the case of `COc1ccc(Cc2c(F)cccc2O[C@@H]2C[C@H](CO)[C@@H](O)[C@H](O)[C@H]2O)cc1` [Example 12], the IC50 is reported as 18 nM.
In the case of `CCc1ccc(Cc2ccccc2O[C@@H]2C[C@H](CO)[C@@H](O)[C@H](O)[C@H]2O)cc1` [Example 25, [2-(4-Ethylbenzyl)phenyl]-5a-carba-β-D-glucopyranoside], the IC50 is reported as 31 nM.
`OC[C@H]1C[C@@H](Oc2cnccc2Cc2ccc(C3CC3)cc2)[C@H](O)[C@@H](O)[C@@H]1O` [Example 42, [4-(4-Cyclopropylbenzyl)pyridin-3-yl]-5a-carba-β-D-gluco-pyranoside] was tested, and the IC50 was 7.7 nM.
Compound `C=Cc1ccc(Cc2ccccc2O[C@@H]2C[C@H](CO)[C@@H](O)[C@H](O)[C@H]2O)cc1` [Example 44, [2-(4-Vinylbenzyl)phenyl]-5a-carba-β-D-glucopyranoside] has an IC50 of 16 nM.
With `COc1ccc(Cc2ccc(C)cc2O[C@@H]2C[C@H](CO)[C@@H](O)[C@H](O)[C@H]2O)cc1` [Example 54, [2-(4-Methoxybenzyl)-5-methylphenyl]-5a-carba-β-D-gluco-pyranoside] the IC50 was 14 nM.
`CCc1ccc(Cc2sccc2O[C@@H]2C[C@H](CO)[C@@H](O)[C@H](O)[C@H]2O)cc1` [Example 55, [2-(4-Ethylbenzyl)thiophen-3-yl]-5a-carba-β-D-gluco-pyranoside] was tested, and the IC50 was 17 nM.
In the case of `Cc1cc(O[C@@H]2C[C@H](CO)[C@@H](O)[C@H](O)[C@H]2O)c(Cc2ccc(C3CC3)cc2)s1` [Example 59, [2-(4-Cyclopropylbenzyl)-5-methylthiophen-3-yl]-5a-carba-β-D-glucopyranoside], the IC50 is reported as 8.9 nM.
Work on `OCC1=C[C@@H](Oc2ccccc2Cc2ccc(C3CC3)cc2)[C@H](O)[C@@H](O)[C@@H]1O` [Example 62, (1R,2S,3R,6R)-6-[2-(4-Cyclopropylbenzyl)phenoxy]-4-(hydroxymethyl)cyclohex-4-ene-1,2,3-triol] yielded an IC50 of 7.1 nM.
Work on `CCc1ccc(Cc2cccc(C3=C[C@H](CO)[C@@H](O)[C@H](O)[C@H]3O)c2)cc1` [Example 64, (1R,2S,3S,6R)-4-[3-(4-Ethylbenzyl)phenyl]-6-(hydroxy-methyl)cyclohex-4-ene-1,2,3-triol] yielded an IC50 of 6.6 nM.
Compound `CCOc1ccc(Cc2ccc(CC)cc2)cc1[C@@H]1C[C@H](CO)[C@@H](O)[C@H](O)[C@H]1O` [Example 68, (1R,2R,3S,4S,6R)-4-[2-Ethoxy-5-(4-ethylbenzyl)phenyl]-6-(hydroxymethyl)cyclohexane-1,2,3-triol] has an IC50 of 18 nM.
For `CCc1ccc(Cc2cc([C@]3(O)C[C@H](CO)[C@@H](O)[C@H](O)[C@H]3O)c(OC)cc2OC)cc1` [Example 69, (1R,2R,3S,4R,5R)-1-[5-(4-Ethylbenzyl)-2,4-dimethoxy-phenyl]-5-(hydroxymethyl)cyclohexane-1,2,3,4-tetraol], the IC50 was 5.1 nM.
`CCc1ccc(Cc2cc([C@@H]3C[C@H](CO)[C@@H](O)[C@H](O)[C@H]3O)c(OC)cc2OC)cc1` [Example 70, (1R,2R,3S,4S,6R)-4-[5-(4-Ethylbenzyl)-2,4-dimethoxy-phenyl]-6-(hydroxymethyl)cyclohexane-1,2,3-triol] was tested, and the IC50 was 7.4 nM.
In the case of `CCc1ccc(Cc2ccc(OC)c([C@]3(O)C[C@H](CO)[C@@H](O)[C@H](O)[C@H]3O)c2)cc1` [Example 73, (1R,2R,3S,4R,5R)-1-[5-(4-Ethylbenzyl)-2-methoxyphenyl]-5-(hydroxymethyl)cyclohexane-1,2,3,4-tetraol], the IC50 is reported as 11 nM.
